According to the NIST ThermoML archive (doi:10.1021/je800193a):
Numbers after ± are expanded uncertainties.

Assay: excess molar enthalpy (molar enthalpy of mixing); xn = mol fraction of the nth substance listed
Conditions: 101.3 kPa, Liquid, Flow calorimetry

CC(=O)c1ccccc1 [acetophenone] + O
excess molar enthalpy [kcal/mol]
Conditions	298.2 K	313.2 K	328.2 K	338.2 K	348.2 K
x1 = 0.1002	0.0169 ± 0.000478	0.0217 ± 0.000574	0.0313 ± 0.000789	0.0342 ± 0.000837	0.0399 ± 0.001
x1 = 0.1997	0.033 ± 0.000789	0.0424 ± 0.001	0.0592 ± 0.00136	0.0608 ± 0.00141	0.0772 ± 0.00177
x1 = 0.3001	0.0492 ± 0.00115	0.0636 ± 0.00146	0.0876 ± 0.00196	0.095 ± 0.00213	0.115 ± 0.00263
x1 = 0.3991	0.0652 ± 0.00148	0.0846 ± 0.00189	0.116 ± 0.00263	0.124 ± 0.00263	0.153 ± 0.00335
x1 = 0.5003	0.0816 ± 0.00184	0.106 ± 0.00237	0.145 ± 0.00311	0.156 ± 0.00335	0.192 ± 0.0043
x1 = 0.5991	0.0975 ± 0.00217	0.127 ± 0.00287	0.173 ± 0.00382	0.188 ± 0.00406	0.23 ± 0.00502
x1 = 0.6986	0.113 ± 0.00263	0.148 ± 0.00335	0.201 ± 0.0043	0.221 ± 0.00478	0.269 ± 0.00598
x1 = 0.7987	0.129 ± 0.00287	0.168 ± 0.00359	0.229 ± 0.00502	0.253 ± 0.0055	0.308 ± 0.00669
x1 = 0.8515	0.138 ± 0.00311	0.175 ± 0.00382	0.24 ± 0.00526	0.245 ± 0.00526	0.274 ± 0.00598
x1 = 0.8967	0.141 ± 0.00311	0.16 ± 0.00359	0.189 ± 0.0043	0.192 ± 0.0043	0.204 ± 0.00478
x1 = 0.9534	0.0718 ± 0.00201	0.0793 ± 0.00225	0.0926 ± 0.00263	0.0937 ± 0.00263	0.1 ± 0.00287
